Values of other authors as cited in PMC10793205, “Differential transmetallation of complexes of the anti-cancer thiosemicarbazone, Dp4e4mT: effects on anti-proliferative efficacy, redox activity, oxy-myoglobin and oxy-hemoglobin oxidation” (Chemical Science, 2023).

Tested on: human tumor xenografts
Conditions: cited from earlier work; for efficacy against a lung tumor xenograft: in vivo after oral administration

Structure (SMILES) | efficacy against a lung tumor xenograft | inhibition of human tumor xenografts (nude mice, 0.4 mg per kg per day)
CCN(C)C(=S)NN=C(c1ccccn1)c1ccccn1 [Dp4e4mT, di-2-pyridylketone-4-ethyl-4-methyl-3-thiosemicarbazone] | potent efficacy against a lung tumor xenograft | –
CN(C)C(=S)NN=C(c1ccccn1)c1ccccn1 [Dp44mT, di-2-pyridylketone 4,4-dimethyl-3-thiosemicarbazone, reference compound] | – | selectively inhibited a variety of human tumor xenografts in nude mice
CN(C(=S)NN=C(c1ccccn1)c1ccccn1)C1CCCCC1 [DpC, di-2-pyridylketone 4-cyclohexyl-4-methyl-3-thiosemicarbazone, reference compound] | potent efficacy against a lung tumor xenograft | –
